Test: Thermal decomposition by DSC
Format: physicochemical
From the text: Sharp threshold of thermal decomposition within the required temperature range characterizes the new pyridine N-oxide based azo dyes which are assumed to be desirable for the application in optical layers for optical data recording.

Q: What does the source list for `CCN1C(O)=C(/N=N/c2c(O)ccc[n+]2[O-])C=CC1=C(C#N)C#N` [(12)]?
A: DSC: dec. at (DSC): 260 °C; Dec.Pt (Table 1 summary): 260 °C
